Values of other authors in patent US10357529B2, “Natural formulation for treating hangover” (RVRS, LLC, priority 2016, dated 2019).

How the values were obtained:
[1] = tested on: rats
[2] = tested on: BZ-sites on GABAAR; details: competitive; read-out: IC50, inhibition of BZ-site [3H]flunitrazepam binding
[3] = tested on: GABAAR; details: 1 μM; hippocampus and cultured neurons

IC50 [2]: 4.36 µM
Structure (SMILES): O=C1c2c(O)cc(O)cc2O[C@H](c2cc(O)c(O)c(O)c2)[C@H]1O [DHM, Dihydromyricetin]
EtOH consumption in an intermittent voluntary EtOH intake paradigm [1]: greatly reduced EtOH consumption | effect on acute alcohol (EtOH) intoxication and withdrawal signs ([1]; 1 mg/kg, i.p. injection): counteracted acute alcohol (EtOH) intoxication | effect on EtOH-induced potentiation of GABAAR's and GABAAR plasticity [3]: antagonized both acute EtOH-induced potentiation of GABAAR's and EtOH exposure/withdrawal-induced GABAAR plasticity
